Results published in patent US20240343761A1, “APELINERGIC MACROCYCLES AND USES THEREOF” (priority 2021, published 2024).
Like-named read-outs stand apart in the source and are kept apart here. Numbered stars: 1 amine (or outer) side, 2 acyl side, 3 side chain; on linkers, the order of the positions; unused ones are H or OH. Bridge positions count the residues as written; N and C are the ends. Square brackets hold non-standard residues; d marks the D form. Peptide text beside a SMILES is read from it. * marks the point of attachment. X3 = O=C([C@H](CCCCNCCC=[*:3])N[*:1])[*:2]; X9 = O=C([C@H](CCCNCCC=[*:3])N[*:1])[*:2]; X2 = Cc1ccc2nc(-c3ccc(N*)cc3)sc2c1; dAllylGly = C=CC[C@@H](N)C(=O)O; AllylGly = C=CC[C@H](N)C(=O)O; pGlu = O=C1CC[C@@H](C(=O)O)N1; Nle = CCCC[C@H](N)C(=O)O; Ava = NCCCCC(=O)O; Bn = c1ccc(C*)cc1

Experiments:
human APJ (hAPJ) = biological target: T1, human APJ (hAPJ) (Homo sapiens, UniProt P35414); assay: Competitive radioligand binding ([125I][Nle75,Tyr77][Pyr1]-Ape13) on membranes of HEK293 cells stably expressing human APJ
T1 construct: expressed in transfected cells; cell membranes
T1 sequence (P35414 1-380): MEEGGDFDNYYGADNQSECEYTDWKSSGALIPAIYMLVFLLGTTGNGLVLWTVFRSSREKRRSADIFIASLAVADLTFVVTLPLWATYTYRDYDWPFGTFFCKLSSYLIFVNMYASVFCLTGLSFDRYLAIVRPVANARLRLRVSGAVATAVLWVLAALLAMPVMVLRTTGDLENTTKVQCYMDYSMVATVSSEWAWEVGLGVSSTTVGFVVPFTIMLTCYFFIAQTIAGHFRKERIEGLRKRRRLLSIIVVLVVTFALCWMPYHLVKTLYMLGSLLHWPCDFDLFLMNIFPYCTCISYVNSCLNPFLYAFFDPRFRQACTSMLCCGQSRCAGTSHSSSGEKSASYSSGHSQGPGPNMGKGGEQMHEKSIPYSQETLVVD
Experimental: HEK293 cells stably expressing YFP-tagged human APJ were cultured in DMEM medium supplemented with 10% FBS, at 37° C. under a humid atmosphere maintaining 5% CO2. Antibiotic G418 (400 μg/mL) was added to maintain a selection pressure for APJ-expressing cells while penicillin/streptomycin (0.1%) were used to prevent bacterial contamination.
Binding experiments were performed on cell membranes of HEK293 stably expressing the YFP-tagged human APJ receptor. Cells were frozen at −80° C. for storage and quickly thawed right before the experiments (1 min at 37° C.). […] The precipitate (cell membranes) was suspended in binding buffer (50 mM Tris-HCl, 0.2% BSA, pH 7.4). Binding assays were run in 96-well plates. […] (820 Ci/mmol)^3 and test ligand with a range of concentrations from 10^−1 to 10^−11 M in a total volume of 200 μL for 1 h at room temperature.
The incubation mixtures were filtered through a glass fiber filter (Millipore, pre-absorbed of PEI 0.5% for 2 h at 4° C.) to remove unbound ligands, and the filter membranes were washed three times with 170 μL cold binding buffer (4° C.). The γ emission was measured using a 1470 Wizard γ-counter from PerkinElmer (Waltham, USA) (80% efficiency).

hAPJ receptor [1] = biological target: T2, hAPJ receptor (Homo sapiens, UniProt P35414); assay: BRET-based Gαi1 activation assay in HEK293 cells; format: cell-based
T2 construct: expressed in transfected cells; host or cells: HEK293, transient transfection with PEI
T2 sequence (P35414 1-380): T1 sequence (P35414 1-380)
Experimental: (§1) HEK293 cells were cultivated in high glucose DMEM medium having 10% FBS, 100 U/mL penicillin/streptomycin, 2 mM glutamine, and 20 mM HEPES at 37° C. in T175 flasks under humidified chamber at 5% CO2. […] Cells were then washed with phosphate-buffered saline (PBS) and 90 μL Hanks' balanced salt solution was added in each well. Then, cells were stimulated with analogs at concentrations ranging from 10^−5 M to 10^−11 M for 5 min at 37° C. (Gαi1) or for 30 min at room temperature (β-arrestin2). After stimulation, 5 μM of coelanterazine 400A was added to each well and the plate was read using the BRET^2 filter set of a GeniosPro plate reader (Tecan, Austria). The BRET ratio was determined as GFP10em/RlucIIem. Data were plotted and EC50 values were determined using GraphPad Prism 8. Each data point represents the mean±SEM of at least three different experiments each done in triplicate.

hAPJ receptor [2] = biological target: T2, hAPJ receptor; assay: BRET-based β-arrestin2 recruitment assay in HEK293 cells; format: cell-based
Experimental: as §1

Structure (SMILES) | Ki (human APJ (hAPJ); Ki binding) | other results
CCCC[C@H](NC(=O)[C@@H]1CCCN1C(=O)CNC(=O)[C@H](CCCCN)NC(=O)[C@H](Cc1c[nH]cn1)NC(=O)[C@H](CO)NC(=O)[C@@H]1CC=CC[C@H](NC(=O)[C@@H]2CCC(=O)N2)C(=O)N2CCC[C@H]2C(=O)N[C@@H](CCCNC(=N)N)C(=O)N1)C(=O)N1CCC[C@H]1C(=O)N[C@@H](Cc1ccccc1)C(=O)O [Compound 3, Pyr-c[X-P-R-X]c-S-H-K-G-P-Nle-P-F] ([pGlu][AllylGly]PR[AllylGly]SHKGP[Nle]PF-OH; staple 2-5) | 1.25 ± 0.284 µM | 
CCCC[C@H](NC(=O)[C@@H]1CCCN1C(=O)CNC(=O)[C@H](CCCCN)NC(=O)[C@@H]1CC=CC[C@H](NC(=O)[C@@H]2CCC(=O)N2)C(=O)N2CCC[C@H]2C(=O)N[C@@H](CCCNC(=N)N)C(=O)N[C@@H](CC(C)C)C(=O)N[C@@H](CO)C(=O)N1)C(=O)N1CCC[C@H]1C(=O)N[C@@H](Cc1ccccc1)C(=O)O [Compound 4, Pyr-c[X-P-R-L-S-X]c-K-G-P-Nle-P-F] ([pGlu][AllylGly]PRLS[AllylGly]KGP[Nle]PF-OH; staple 2-7) | 0.148 ± 0.021 µM | 
CCCC[C@H](NC(=O)[C@@H]1CCCN1C(=O)CNC(=O)[C@H](CCCCN)NC(=O)[C@H](Cc1c[nH]cn1)NC(=O)[C@H](CO)NC(=O)[C@@H]1CC=CC[C@H](NC(=O)[C@@H]2CCC(=O)N2)C(=O)N2CCC[C@H]2C(=O)N[C@@H](C)C(=O)N1)C(=O)N1CCC[C@H]1C(=O)N[C@@H](Cc1ccccc1)C(=O)O [Compound 5, Pyr-c[X-P-A-X]c-S-H-K-G-P-Nle-P-F] ([pGlu][AllylGly]PA[AllylGly]SHKGP[Nle]PF-OH; staple 2-5) | > 10 µM | 
CCCC[C@H](NC(=O)[C@@H]1CCCN1C(=O)CNC(=O)[C@H](CCCCN)NC(=O)[C@H](Cc1c[nH]cn1)NC(=O)[C@@H]1CC=CC[C@H](NC(=O)[C@@H]2CCC(=O)N2)C(=O)N2CCC[C@H]2C(=O)N[C@@H](C)C(=O)N[C@@H](CC(C)C)C(=O)N1)C(=O)N1CCC[C@H]1C(=O)N[C@@H](Cc1ccccc1)C(=O)O [Compound 6, Pyr-c[X-P-A-L-X]c-H-K-G-P-Nle-P-F] | > 10 µM | 
CCCC[C@H](NC(=O)[C@@H]1CCCN1C(=O)CNC(=O)[C@H](CCCCN)NC(=O)[C@@H]1CC=CC[C@H](NC(=O)[C@@H]2CCC(=O)N2)C(=O)N2CCC[C@H]2C(=O)N[C@@H](C)C(=O)N[C@@H](CC(C)C)C(=O)N[C@@H](CO)C(=O)N1)C(=O)N1CCC[C@H]1C(=O)N[C@@H](Cc1ccccc1)C(=O)O [Compound 7, Pyr-c[X-P-A-L-S-X]c-K-G-P-Nle-P-F] ([pGlu][AllylGly]PALS[AllylGly]KGP[Nle]PF-OH; staple 2-7) | > 10 µM | 
CCCC[C@H](NC(=O)[C@@H]1CCCN1C(=O)CNC(=O)[C@@H]1CC=CC[C@H](NC(=O)[C@@H]2CCC(=O)N2)C(=O)N2CCC[C@H]2C(=O)N[C@@H](C)C(=O)N[C@@H](CC(C)C)C(=O)N[C@@H](CO)C(=O)N[C@@H](Cc2c[nH]cn2)C(=O)N1)C(=O)N1CCC[C@H]1C(=O)N[C@@H](Cc1ccccc1)C(=O)O [Compound 8, Pyr-c[X-P-A-L-S-H-X]c-G-P-Nle-P-F] ([pGlu][AllylGly]PALSH[AllylGly]GP[Nle]PF-OH; staple 2-8) | > 10 µM | 
CCCC[C@@H]1NC(=O)[C@@H]2CCCN2C(=O)[C@H](NC(=O)[C@H](CCCCN)NC(=O)[C@H](Cc2c[nH]cn2)NC(=O)[C@H](CO)NC(=O)[C@H](CC(C)C)NC(=O)[C@H](CCCNC(=N)N)NC(=O)[C@@H]2CCCN2C(=O)[C@H](CCCNC(=N)N)NC(=O)[C@@H]2CCC(=O)N2)CC=CC[C@@H](C(=O)O)NC(=O)[C@@H]2CCCN2C1=O [Compound 9, Pyr-R-P-R-L-S-H-K-[dX-P-Nle-P-X]] ([pGlu]RPRLSHK[dAllylGly]P[Nle]P[AllylGly]-OH; staple 9-13) |  | Ki (human APJ (hAPJ)): 0.052 ± 0.015 µM
CCCC[C@@H]1NC(=O)[C@@H]2CCCN2C(=O)[C@@H](NC(=O)[C@H](CCCCN)NC(=O)[C@H](Cc2c[nH]cn2)NC(=O)[C@H](CO)NC(=O)[C@H](CC(C)C)NC(=O)[C@H](CCCNC(=N)N)NC(=O)[C@@H]2CCCN2C(=O)[C@H](CCCNC(=N)N)NC(=O)[C@@H]2CCC(=O)N2)CC=CC[C@H](C(=O)O)NC(=O)[C@@H]2CCCN2C1=O [Compound 10, Pyr-R-P-R-L-S-H-K-[X-P-Nle-P-dX]] ([pGlu]RPRLSHK[AllylGly]P[Nle]P[dAllylGly]-OH; staple 9-13) |  | Ki (human APJ (hAPJ)): 0.187 ± 0.02 µM
CC(C)C[C@@H]1NC(=O)[C@H](CCCNC(=N)N)NC(=O)[C@@H](N)CC=CC[C@@H](C(=O)N[C@@H](CCCCN)C(=O)O)NC(=O)[C@H](CO)NC1=O [Compound 30, NH2-c[X-R-L-S-X]c-K] (H-[AllylGly]RLS[AllylGly]K-OH; staple 1-5) | > 10 µM | 
CCCC[C@H](NC(=O)[C@@H]1CCCN1C(=O)CNC(=O)[C@@H]1CC=CC[C@H](N)C(=O)N[C@@H](CCCNC(=N)N)C(=O)N[C@@H](CC(C)C)C(=O)N[C@@H](CO)C(=O)N1)C(=O)O [Compound 31, NH2-c[X-R-L-S-X]c-G-P-Nle] (H-[AllylGly]RLS[AllylGly]GP[Nle]-OH; staple 1-5) | > 10 µM | Ki (human APJ (hAPJ); Ki (APJ affinity)): 0.0006 µM
CCCC[C@H](NC(=O)[C@@H]1CCCN1C(=O)CCCCNC(=O)[C@@H]1CC=CC[C@H](N)C(=O)N[C@@H](CCCNC(=N)N)C(=O)N[C@@H](CC(C)C)C(=O)N[C@@H](CO)C(=O)N1)C(=O)O [Compound 32, NH2-c[X-R-L-S-X]c-5Ava-P-Nle] (H-[AllylGly]RLS[AllylGly][Ava]P[Nle]-OH; staple 1-5) | > 10 µM | 
N=C(N)NCCC[C@@H]1NC(=O)[C@@H](N)CC=CCCNCCC[C@@H](C(=O)N2CCC[C@H]2C(=O)N[C@@H](Cc2ccc(OCc3ccccc3)cc2)C(=O)O)NC1=O [Compound 51, NH2-c[X-R-Orn(N-butenyl)]-P-Tyr(Obn)] (H-[AllylGly]R[X9]PY(Bn)-OH; staple 1-3) | > 10 µM | 
N=C(N)NCCC[C@H](N)C(=O)N[C@H]1CCCCNCCC=CC[C@@H](C(=O)N[C@H](Cc2ccc(OCc3ccccc3)cc2)C(=O)O)NC(=O)[C@@H]2CCCN2C1=O [Compound 57, NH2-R-c[K(N-butenyl)-P-X]-(D-Tyr(Obn))] (H-R[X3]P[AllylGly][dY](Bn)-OH; staple 2-4) | > 10 µM | 
N=C(N)NCCC[C@H](N)C(=O)N[C@H]1CCCCNC(=O)CC[C@@H](C(=O)N[C@@H](Cc2ccc(OCc3ccccc3)cc2)C(=O)O)NC(=O)[C@@H]2CCCN2C1=O [Compound 58, NH2-R-c[K-P-E]-Tyr(Obn)] (H-RKPEY(Bn)-OH; lactam 2-4) | > 10 µM | 
CCCC[C@H](NC(=O)[C@@H]1CCCN1C(=O)[C@@H]1CCCCNC(=O)CC[C@H](NC(=O)[C@H](CC(C)C)NC(=O)[C@H](CCCNC(=N)N)NC(=O)[C@@H]2CCCN2C(=O)[C@H](CCCNC(=N)N)NC(=O)[C@H](CCC(N)=O)NC(=O)[C@H](CCCNC(=N)N)NC(=O)[C@H](CCCNC(=N)N)NC(=O)[C@H](Cc2ccccc2)NC(=O)[C@H](CCCCN)NC(C)=O)C(=O)N[C@@H](Cc2c[nH]cn2)C(=O)N[C@@H](CCCCN)C(=O)N1)C(=O)N1CCC[C@H]1C(=O)N[C@@H](CC(=O)Nc1ccc(-c2nc3ccc(C)cc3s2)cc1)C(=O)O [Compound 68, Ac-K-F-R-R-Q-R-P-R-L-[E-H-K-K]-P-Nle-P-B2] (Ac-KFRRQRPRLEHKKP[Nle]PD(X2)-OH; lactam 10-13) | 0.004 ± 0.001 µM | 
CC(C)C[C@@H]1NC(=O)[C@@H]2CCCN2C(=O)[C@@H](NC(=O)[C@H](CO)NC(=O)[C@H](CCCNC(=N)N)NC(=O)[C@H](CCCNC(=N)N)NC(=O)[C@@H]2CCC(=O)N2)CCC(=O)NCCCC[C@@H](C(=O)N[C@@H](CCCNC(=N)N)C(=O)N[C@H](C(=O)N2CCC[C@H]2C(=O)N[C@@H](Cc2ccccc2)C(=O)N2C[C@H](OCc3ccccc3)C[C@H]2C(=O)O)C(C)C)NC(=O)[C@H](Cc2c[nH]cn2)NC1=O [Compound 93, Pyr-R-R-S-[E-P-L-H-K]-R-V-P-F-Hyp(OBn)] |  | EC50 (hAPJ receptor [1]): 0.047 ± 0.003 µM; EC50 (hAPJ receptor [2]): 2.2 ± 0.132 µM
